Where a name gives a salt, the structure may show the parent alone.
Columns and labels:
[1] = target: T1, recombinant human Meningioma Expressed Antigen 5 (MGEA5), also referred to as O-GlcNAcase (OGA) (Homo sapiens, UniProt O60502); test: OGA biochemical assay (inhibition of FM-GlcNAc hydrolysis, fluorescence); details: for Emax: read-out: ENZYMATIC Emax (%); for IC50: read-out: ENZYMATIC hOGA, pIC50 (converted)
T1 construct: Full length OGA enzyme was purchased at OriGene (cat # TP322411); purchased OriGene TP322411
T1 sequence (O60502 1-916): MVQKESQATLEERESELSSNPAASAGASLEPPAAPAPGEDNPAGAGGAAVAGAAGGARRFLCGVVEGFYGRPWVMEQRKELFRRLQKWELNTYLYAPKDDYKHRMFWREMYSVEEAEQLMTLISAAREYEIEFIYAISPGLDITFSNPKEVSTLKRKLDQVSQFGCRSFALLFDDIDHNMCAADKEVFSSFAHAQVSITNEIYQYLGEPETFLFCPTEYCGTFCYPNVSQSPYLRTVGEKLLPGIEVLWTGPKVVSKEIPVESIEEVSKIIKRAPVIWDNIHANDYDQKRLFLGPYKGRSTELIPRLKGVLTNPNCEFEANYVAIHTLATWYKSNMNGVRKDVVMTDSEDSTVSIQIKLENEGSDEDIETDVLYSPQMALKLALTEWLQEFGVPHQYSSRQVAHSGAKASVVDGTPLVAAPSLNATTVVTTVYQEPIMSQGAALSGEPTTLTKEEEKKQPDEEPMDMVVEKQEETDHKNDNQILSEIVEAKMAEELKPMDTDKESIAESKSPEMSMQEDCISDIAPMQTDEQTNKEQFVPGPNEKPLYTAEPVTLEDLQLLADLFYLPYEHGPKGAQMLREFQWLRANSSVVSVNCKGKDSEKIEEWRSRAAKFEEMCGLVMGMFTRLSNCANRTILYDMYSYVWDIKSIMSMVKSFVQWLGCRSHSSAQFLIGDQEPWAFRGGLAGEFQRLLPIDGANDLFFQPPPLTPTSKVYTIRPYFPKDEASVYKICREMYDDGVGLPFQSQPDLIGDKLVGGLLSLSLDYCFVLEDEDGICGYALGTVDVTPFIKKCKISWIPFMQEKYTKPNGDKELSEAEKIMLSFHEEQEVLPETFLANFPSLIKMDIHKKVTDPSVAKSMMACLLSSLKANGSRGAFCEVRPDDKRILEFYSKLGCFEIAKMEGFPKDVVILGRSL
Excerpt: The assay is based on the inhibition of the hydrolysis of fluorescein mono-β-D-N-Acetyl-Glucosamine (FM-GlcNAc) (Mariappa et al. 2015, Biochem J 470:255) by the recombinant human Meningioma Expressed Antigen 5 (MGEA5), also referred to as O-GlcNAcase (OGA). The hydrolysis FM-GlcNAc (Marker Gene technologies, cat # M1485) results in the formation of B-D-N-glucosamineacetate and fluorescein. The fluorescence of the latter can be measured at excitation wavelength 485 nm and emission wavelength 538 nm. An increase in enzyme activity results in an increase in fluorescence signal. Full length OGA enzyme was purchased at OriGene (cat # TP322411). The enzyme was stored in 25 mM Tris.HCl, pH 7.3, 100 mM glycine, 10% glycerol at −20° C. Thiamet G and GlcNAcStatin were tested as reference compounds (Yuzwa et al. 2008 Nature Chemical Biology 4:483; Yuzwa et al. 2012 Nature Chemical Biology 8:393). The assay was performed in 200 mM Citrate/phosphate buffer supplemented with 0.005% Tween-20. 35.6 g Na2HPO4 2 H2O (Sigma, # C0759) were dissolved in 1 L water to obtain a 200 mM solution. 19.2 g citric acid (Merck, # 1.06580) was dissolved in 1 L water to obtain a 100 mM solution. pH of the sodium phosphate solution was adjusted with the citric acid solution to 7.2. The buffer to stop the reaction consists of a 500 mM Carbonate buffer, pH 11.0. 734 mg FM-GlcNAc were dissolved in 5.48 mL DMSO to obtain a 250 mM solution and was stored at −20° C. OGA was used at 2 nM concentration and FM-GlcNAc at a 100 uM final concentration. Dilutions were prepared in assay buffer.
50 nl of a compound dissolved in DMSO was dispensed on Black Proxiplate™ 384 Plus Assay plates (Perkin Elmer, #6008269) and 3 μl fl-OGA enzyme mix added subsequently. Plates were pre-incubated for 60 min at room temperature and then 2 μl FM-GlcNAc substrate mix added. […] Plates were briefly centrifuged for 1 min at 1000rpm and incubate at room temperature for 6 h. To stop the reaction 5 μl STOP buffer were added and plates centrifuge again 1 min at 1000 rpm.
Fluorescence was quantified in the Thermo Scientific Fluoroskan Ascent or the PerkinElmer EnVision with excitation wavelength 485 nm and emission wavelength 538 nm.
For analysis a best-fit curve is fitted by a minimum sum of squares method. From this an IC50 value and Hill coefficient was obtained. High control (no inhibitor) and low control (saturating concentrations of standard inhibitor) were used to define the minimum and maximum values.

OGA = target: T2, OGA (Homo sapiens, UniProt O60502); test: OGA cellular assay (ICC detection of O-GlcNAcylated proteins in HEK293 cells inducible for P301L mutant human Tau); assay type: cell-based; details: 6 hours incubation; for EC50: read-out: CELLULAR hOGA, pEC50 (converted)
T2 construct: HEK293 cells inducible for P301L mutant human Tau (isoform 2N4R) were established at Janssen; endogenous in cells; host or cells: HEK293 cells inducible for P301L mutant human Tau (2N4R)
T2 sequence (O60502 1-916): T1 sequence (O60502 1-916)
Procedure: HEK293 cells inducible for P301L mutant human Tau (isoform 2N4R) were established at Janssen. Thiamet-G was used for both plate validation (high control) and as reference compound (reference EC50 assay validation). OGA inhibition is evaluated through the immunocytochemical (ICC) detection of O-GlcNAcylated proteins by the use of a monoclonal antibody (CTD110.6; Cell Signaling, #9875) detecting O-GlcNAcylated residues as previously described (Dorfmueller et al. 2010 Chemistry & biology, 17:1250). Inhibition of OGA will result in an increase of O-GlcNAcylated protein levels resulting in an increased signal in the experiment. Cell nuclei are stained with Hoechst to give a cell culture quality control and a rough estimate of immediate compounds toxicity, if any. ICC pictures are imaged with a Perkin Elmer Opera Phenix plate microscope and quantified with the provided software Perkin Elmer Harmony 4.1.
Cells were propagated in DMEM high Glucose (Sigma, #D5796) following standard procedures. 2 days before the cell assay cells are split, counted and seeded in Poly-D-Lysine (PDL) coated 96-wells (Greiner, #655946) plate at a cell density of 12,000 cells per cm^2 (4,000 cells per well) in 100 µl of Assay Medium (Low Glucose medium is used to reduce basal levels of GlcNAcylation) (Park et al. 2014 The Journal of biological chemistry 289:13519). At the day of compound test medium from assay plates was removed and replenished with 90 μl of fresh Assay Medium. 10 μl of compounds at a 10 fold final concentration were added to the wells. Plates were centrifuged shortly before incubation in the cell incubator for 6 hours. DMSO concentration was set to 0.2%. Medium is discarded by applying vacuum. For staining of cells medium was removed and cells washed once with 100 μl D-PBS (Sigma, #D8537). From next step onwards unless other stated assay volume was always 50 μl and incubation was performed without agitation and at room temperature. Cells were fixed in 50 μl of a 4% paraformaldehyde (PFA, Alpha aesar, # 043368) PBS solution for 15 minutes at room temperature. […] Before analysis samples were washed 2 times manually for 5 minutes in ICC base buffer.
Imaging is performed using Perkin Elmer Phenix Opera using a water 20× objective and recording 9 fields per well. Intensity readout at 488 nm is used as a measure of O-GlcNAcylation level of total proteins in wells. To assess potential toxicity of compounds nuclei were counted using the Hoechst staining. IC50-values are calculated using parametric non-linear regression model fitting. As a maximum inhibition Thiamet G at a 200 uM concentration is present on each plate. In addition, a concentration response of Thiamet G is calculated on each plate.

Row | Compound | melting point | Emax [1] | IC50 [1] | Emax (OGA) | EC50 (OGA) | ENZYMATIC hOGA; pIC50 [1]
1 | Cc1cc(N2CCC3(CCN(Cc4ccc5sc(C)nc5c4)C3)C2)nc(C)n1 (centres unmarked) (as salt: HCl) [Product 32] | 214.8 °C | – | – | – | – | –
2 | Cc1cc(N2CCC3(CCN(C(C)c4ccc5nccnc5c4)C3)C2)nc(C)n1.Cl (centres unmarked) [Product 20] | 173.1 °C | 97.6% | 0.117 µM | 14.9% | > 1000 µM | –
3 | CC(=O)Nc1ncc(CN2CC3(CCN(c4cc(C)nc(C)c4)C3)C2)s1 [Product 25] | 214.1 °C | 57.9% | 8.71 µM | – | – | –
4 | COc1cc(C)cc(N2CCC3(CCN(Cc4cnc(NC(C)=O)s4)C3)C2)n1 (centres unmarked) [Product 66] | – | 99.7% | 0.0692 µM | 38.5% | > 1 µM | –
5 | COc1cncc(N2CCC3(CCN(Cc4cnc(NC(C)=O)s4)C3)C2)c1 (centres unmarked) [Product 67] | – | 99.4% | 0.0347 µM | 45.6% | 0.537 µM | –

The remaining lines, values ahead:

Row | melting point | Emax [1] | IC50 [1] | Emax (OGA) | EC50 (OGA) | ENZYMATIC hOGA; pIC50 [1] | Compound
6 | 212.2 °C | 100% | 0.302 µM | – | – | – | CC(=O)Nc1ncc(CN2CCC3(C2)CN(c2cc(C)nc(C)c2)C3)s1 [Product 23]
7 | 218.2 °C | 99.3% | 0.049 µM | 38% | > 1 µM | – | Cc1cc(N2CCC3(CCN(C(C)c4ccc5scnc5c4)C3)C2)nc(C)n1.Cl (centres unmarked) [Product 24]
8 | 166.4 °C | 79.4% | – | – | – | 5.58 | Cc1cc(N2CCC3(CCN(C(C)c4cc5ccccc5n4C)C3)C2)nc(C)n1.Cl (centres unmarked) [Product 27]
9 | 230 °C | 102% | 0.0339 µM | 23.7% | > 1 µM | – | Cc1cc(N2CCC3(CCN(C(C)c4ccc5sc(C)nc5c4)C3)C2)nc(C)n1 (centres unmarked) [Product 31]
10 | – | 103% | 0.0102 µM | 92.9% | 0.138 µM | – | CC(=O)Nc1ncc(CN2CCC3(CCN(c4cncc(C)c4)C3)C2)s1 (centres unmarked) [Product 68]
11 | – | 99.1% | 0.049 µM | 57.6% | 0.676 µM | – | CC(=O)Nc1ncc(CN2CCC3(CCN(c4cncc(C(F)(F)F)c4)C3)C2)s1 (centres unmarked) [Product 69]
